The values below are quoted from earlier work in publication PMC10930102 (Journal of Enzyme Inhibition and Medicinal Chemistry, 2024).

One series deals with T1, IGF1R (Homo sapiens, UniProt P08069).
T1 construct: purchased Reaction Biology Corporation
On the set-up: method as in PMID 22734674. Particulars: cited from earlier work.

A further series concerns the target T2, c-Src (Homo sapiens, UniProt P12931).
T2 construct: purchased Reaction Biology Corporation
The arrangement: method as in PMID 22734674. Particulars: cited from earlier work.

T2 sequence (P12931 whole entry): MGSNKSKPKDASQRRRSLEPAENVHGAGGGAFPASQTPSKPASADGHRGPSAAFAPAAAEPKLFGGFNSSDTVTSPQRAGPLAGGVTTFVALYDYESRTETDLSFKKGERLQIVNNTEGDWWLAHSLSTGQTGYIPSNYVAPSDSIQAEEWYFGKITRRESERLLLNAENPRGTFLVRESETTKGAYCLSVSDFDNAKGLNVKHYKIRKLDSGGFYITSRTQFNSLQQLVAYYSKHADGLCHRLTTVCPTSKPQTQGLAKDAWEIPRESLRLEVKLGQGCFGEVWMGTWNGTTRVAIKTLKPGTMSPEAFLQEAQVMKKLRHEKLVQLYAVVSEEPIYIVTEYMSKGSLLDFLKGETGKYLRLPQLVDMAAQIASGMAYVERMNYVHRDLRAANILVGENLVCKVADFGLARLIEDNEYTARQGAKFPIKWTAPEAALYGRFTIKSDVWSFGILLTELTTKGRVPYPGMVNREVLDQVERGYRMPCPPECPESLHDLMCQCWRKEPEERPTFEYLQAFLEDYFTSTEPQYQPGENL
T1 sequence (P08069 31-1367): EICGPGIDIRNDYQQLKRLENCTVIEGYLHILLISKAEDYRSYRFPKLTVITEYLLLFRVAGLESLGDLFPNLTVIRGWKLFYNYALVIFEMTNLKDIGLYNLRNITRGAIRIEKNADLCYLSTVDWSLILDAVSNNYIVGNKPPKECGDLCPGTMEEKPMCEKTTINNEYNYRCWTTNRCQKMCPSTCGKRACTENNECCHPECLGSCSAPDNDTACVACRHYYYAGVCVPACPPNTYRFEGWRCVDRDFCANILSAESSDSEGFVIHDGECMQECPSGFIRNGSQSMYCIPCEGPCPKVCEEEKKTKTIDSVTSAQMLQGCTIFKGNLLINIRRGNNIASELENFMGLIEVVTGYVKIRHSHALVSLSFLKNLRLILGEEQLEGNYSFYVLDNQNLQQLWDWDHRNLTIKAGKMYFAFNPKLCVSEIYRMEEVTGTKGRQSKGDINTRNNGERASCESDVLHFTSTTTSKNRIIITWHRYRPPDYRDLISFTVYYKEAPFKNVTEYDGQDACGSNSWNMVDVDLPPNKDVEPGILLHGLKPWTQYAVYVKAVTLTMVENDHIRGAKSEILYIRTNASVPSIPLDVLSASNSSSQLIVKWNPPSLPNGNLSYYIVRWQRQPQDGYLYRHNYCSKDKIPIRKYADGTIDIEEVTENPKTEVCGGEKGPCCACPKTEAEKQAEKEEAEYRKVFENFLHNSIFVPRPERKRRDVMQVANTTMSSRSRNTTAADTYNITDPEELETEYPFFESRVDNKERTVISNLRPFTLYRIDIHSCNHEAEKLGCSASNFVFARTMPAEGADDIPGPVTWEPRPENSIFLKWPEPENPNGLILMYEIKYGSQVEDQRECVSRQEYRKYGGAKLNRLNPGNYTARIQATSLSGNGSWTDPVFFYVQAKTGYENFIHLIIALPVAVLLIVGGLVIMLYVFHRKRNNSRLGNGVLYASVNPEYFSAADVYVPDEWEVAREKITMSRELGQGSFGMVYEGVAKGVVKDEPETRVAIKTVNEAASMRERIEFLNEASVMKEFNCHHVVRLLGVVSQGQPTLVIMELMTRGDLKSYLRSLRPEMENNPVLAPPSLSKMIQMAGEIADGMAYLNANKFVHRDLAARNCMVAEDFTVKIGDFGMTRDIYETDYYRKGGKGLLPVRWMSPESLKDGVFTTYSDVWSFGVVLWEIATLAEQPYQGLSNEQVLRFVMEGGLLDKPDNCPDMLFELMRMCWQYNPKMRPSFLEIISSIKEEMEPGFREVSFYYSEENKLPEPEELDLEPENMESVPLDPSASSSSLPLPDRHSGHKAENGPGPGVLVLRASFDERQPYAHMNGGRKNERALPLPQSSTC

With `CC(C)NC(=O)[C@H]1CC[C@@H](n2/c(=N/C(=O)c3cc(F)cc(F)c3)[nH]c3ccc(CN4CCC(C(C)(C)O)CC4)cc32)CC1` [Compound 1], the IC50 (usually the point on the concentration scale where inhibition reaches its midpoint) on IGF1R is 100 nM; at c-Src, 420 nM.
